Results from patent US6448265B1, “Pyrazoles and pyrazolopyrimidines having CRF antagonistic activity” (Pfizer, Inc., priority 1992, dated 2002).

`COc1ccccc1C(=O)c1c(SC)nn(-c2c(Cl)cc(Cl)cc2Cl)c1N` [Example 3, 5-Amino-4-(2-methoxybenzoyl)-3-methylthio-1-(2,4,6-trichlorophenyl)pyrazole] gave a melting point of 200 to 202 °C.
`Cc1nn(-c2c(Cl)cc(Cl)cc2Cl)c(N)c1C(=O)c1ccccc1Cl` [Example 4, 5-Amino-4-(2-chlorobenzoyl)-3-methyl-1-(2,4,6-trichlorophenyl) pyrazole] showed a melting point of 222 °C.
